In article PMC4274986 (Journal of Molecular Recognition, 2014):

Tested on: Streptavidin-R-phycoerythrin (SAPE)
Assay type: binding

Q: For FTSSPSKHPQVEAGV [R441], which “SAPE binding median fluorescence vs unlabeled controls” value is on record?
A: Its value is “comparable to the unlabeled controls”.
